Results from patent US20200037609A1, “HERBICIDAL COMPOSITIONS AND METHODS OF USE THEREOF” (The Regents of the University of California, priority 2017, published 2020).

Assays:
[1] = test system: Arabidopsis thaliana Col-0 flowers; assay: Cross experiment, AA as chemical hybridization agent; type: in vivo; details: 250 μM AA; for offspring obtained: listed as AA
Method: Flowers of Arabidopsis thaliana Col-0 plants were treated with aspterric acid. The treated flowers that were missing all six fertile stamens were selected as the female parent in a cross with a male parent of known genetic identity. Non-treated Arabidopsis plants containing a BASTA resistant gene were used as male parent to donate pollen to the plants where the flowers were missing all six fertile stamens. 2-week old F1 progeny resulting from the cross were treated with Finale (11.3% Glufosinate-ammonium) at a 1:2000 dilution.
To make male sterile A. thaliana, AA was added to chemical hybridization agent (CHA) formulation (250 μM AA, 2% ethanol, 0.1% Tween-80, 1% corn oil in water), which has less inhibition effect on the growth of A. thaliana. Flowers of the AA treated Col-0 were selected as the female parent. […] 2-week old F1 progeny resulting from the cross were treated by Finale (11.3% glufosinate-ammonium) at 1:2000 dilution.

[2] = molecular target: T1, AstD (Aspergillus terreus, UniProt Q0CPG9); assay: DHAD enzymatic inhibition assay (phenylhydrazine derivatization, LC-MS); type: biochemical; details: 8 mM aspterric acid
T1 construct: […]; 6xHis; made in house; host or cells: E. coli BL21 (DE3)
T1 sequence (Q0CPG9 112-598): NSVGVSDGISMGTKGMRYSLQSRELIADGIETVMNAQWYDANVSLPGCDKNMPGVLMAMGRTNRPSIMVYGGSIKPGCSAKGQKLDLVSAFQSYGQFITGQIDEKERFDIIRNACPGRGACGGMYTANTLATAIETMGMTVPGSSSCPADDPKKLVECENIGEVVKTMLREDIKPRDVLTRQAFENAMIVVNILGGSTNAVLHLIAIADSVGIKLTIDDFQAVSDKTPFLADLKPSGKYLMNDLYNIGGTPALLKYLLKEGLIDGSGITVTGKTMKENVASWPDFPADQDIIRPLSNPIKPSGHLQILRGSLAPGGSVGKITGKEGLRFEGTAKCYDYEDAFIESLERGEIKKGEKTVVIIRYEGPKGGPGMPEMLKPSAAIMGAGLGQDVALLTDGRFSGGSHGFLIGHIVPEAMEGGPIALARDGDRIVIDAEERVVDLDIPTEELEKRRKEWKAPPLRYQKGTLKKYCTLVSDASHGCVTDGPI
Method: Enzymatic activity reactions were carried out in […] volumes containing 50 mM storage buffer, 10 mM (±)-Sodium 2,3-dihydroxyisovalerate hydrate (DHAD substrate) and 1 μM purified DHAD enzyme. After incubation for 30 minutes at 30° C., the reaction was stopped by adding an equal volume of ethanol. 1/10 volumes of 100 mM phenylhydrozine was added at room temperature for 30 minutes to derivatize the DHAD-synthesized molecule (3-methyl-2-oxo-butanoic acid) into a detectable derivatization product (DDP). See FIG. 5A for an overview of reactions.
Inhibition assays were carried out according to the reactions described above by incubating purified DHAD enzymes (either the housekeeping DHAD from Aspergillus terreus, the housekeeping DHAD from Arabidopsis thaliana, or AstD from Aspergillus terreus) with aspterric acid at various concentrations. For AstD, up to 8 mM of aspterric acid was tested. Derivatization with phenylhydrozine, LC-MS analysis, and DDP detection by UV absorption at 350 nm was carried out. The half maximal inhibitory concentration (IC50) and the effect of aspterric acid on the enzyme kinetics of each purified DHAD enzyme was calculated based on the initial reaction rates observed in the inhibition assays.
Biochemical assay of DHADs. […] The area of the HPLC peak with UV absorption at 350 nm was used to quantify the amount of 6. […]

[3] = test system: Streptomyces sp. Mg1; assay: Streptomyces growth inhibition assay; type: cell-based; details: 250 μM aspterric acid
Method: Streptomyces sp. Mg1 was plated onto MS media either with or without 250 μM aspterric acid. Plates were incubated at 28° C.

[4] = test system: S. cerevisiae ΔILV3 expressing fDHAD; assay: Growth inhibition of S. cerevisiae ΔILV3 in ILV dropout media; type: cell-based, Saccharomyces cerevisiae
Method: Growth inhibition assay of S. cerevisiae on plates or in the tubes. S. cerevisiae was grown in isoleucine, leucine and valine (ILV) dropout media (20 g/L glucose, 0.67 g/L Difco™ Yeast Nitrogen Base w/o amino acids, 18 mg/L adenine, arginine 76 mg/L, asparagine 76 mg/L, aspartic acid 76 mg/L, glutamic acid 76 mg/L, histidine 76 mg/L, lysine 76 mg/L, methionine 76 mg/L, phenylalanine 76 mg/L, serine 76 mg/L, threonine 76 mg/L, tryptophan 76 mg/L, tyrosine 76 mg/L) to test growth inhibition of AA on S. cerevisiae. S. cerevisiae was incubated at 28° C. until OD600 of the control strain without AA treatment reached about 0.8. The ratio of yeast OD600 in media with AA treatment to yeast OD600 in media without AA was calculated as the percentage of growth inhibition. The inhibition curve was plotted as percentage of inhibition versus AA concentrations. […] The growth curves of TY05, TY06 and TY07 were also plotted (FIG. 29A-29D). The OD600 was recorded for every 20 minutes over a total of 50 h. The inhibition percentage can be calculated by following equation: […]

[5] = female AA treated wild type x male un-treated glufosinate resistant plant

Structure (SMILES): CC(C)=C1CC[C@]23CO[C@H](C2)[C@@](O)(C(=O)O)CC[C@@H]13 [aspterric acid]
- offspring obtained ([1]; female AA treated wild type x male AA treated glufosinate resistant plant): No offspring was obtained and No
- inherit resistance [1, 5]: Yes
- offspring obtained [1, 5]: Offspring was obtained and Yes
- inhibition of AstD [2]: no inhibition
- inhibition of AstD ([2]; listed as AA): not inhibited
- growth of Streptomyces on MS media [3]: inhibited the growth
- IC50 ([4]; Saccharomyces cerevisiae, ILV dropout media, read-out: IC50 of growth inhibition, yeast expressing fDHAD): ~2 µM
- sensitivity to AA of yeast expressing fDHAD compared to yeast expressing AstD ([4]; ratio of IC50): approximately 100 times
